Assay results published in the supplement of paper PMC10307832.

Columns and labels:
Test in all cases: relative viability (nuclei count vs DMSO), 5 days (fraction); higher = more cells survive
AZD6482 + Phenformin = compound: Cc1cc([C@@H](C)Nc2ccccc2C(=O)O)c2nc(N3CCOCC3)cc(=O)n2c1 [AZD6482] + N=C(N)NC(=N)NCCc1ccccc1 [Phenformin] (partner 250 µM)
Outline: (§1)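 Lung cancer cell lines in 1536-well plates were dosed by pin tool the day after seeding, either with one drug alone or with a fixed anchor-drug dose plus five library-drug doses (not always all listed) in √10 steps. After 5 days, cells were fixed and their nuclei stained in one step (final 0.05% Triton X-100, 1% formaldehyde, 1 ug/ml Hoechst), then counted on 4× images. Relative viability is the nuclei count in treated wells divided by that in vehicle wells. Values are medians of duplicate plates.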

[1] = compound: COc1cc2nc(N3CCCN(C)CC3)nc(NC3CCN(Cc4ccccc4)CC3)c2cc1OC + Cc1nc(NC(=O)N2CCC[C@H]2C(N)=O)sc1-c1ccnc(C(C)(C)C(F)(F)F)c1 [Alpelisib] (partner 2 µM)
Outline: as §1

[2] = compound: COc1cc2nc(N3CCCN(C)CC3)nc(NC3CCN(Cc4ccccc4)CC3)c2cc1OC + Cc1nc(Nc2ncc(C(=O)Nc3c(C)cccc3Cl)s2)cc(N2CCN(CCO)CC2)n1 [Dasatinib] (partner 0.075 µM)
Outline: as §1

AZD6482 + Foretinib = compound: Cc1cc([C@@H](C)Nc2ccccc2C(=O)O)c2nc(N3CCOCC3)cc(=O)n2c1 [AZD6482] + COc1cc2c(Oc3ccc(NC(=O)C4(C(=O)Nc5ccc(F)cc5)CC4)cc3F)ccnc2cc1OCCCN1CCOCC1 [Foretinib] (partner 0.25 µM)
Outline: as §1

Cell Line	relative viability (AZD6482 + Phenformin; first compound 0.08 µM)	relative viability (AZD6482 + Phenformin; first compound 0.8 µM)	relative viability (AZD6482 + Phenformin; first compound 2.53 µM)	relative viability (AZD6482 + Phenformin; first compound 8 µM)	relative viability ([1]; first compound 0.2 µM)	relative viability ([1]; first compound 0.6325 µM)	relative viability ([1]; first compound 2 µM)	relative viability ([1]; first compound 6.325 µM)	relative viability ([2]; first compound 0.2 µM)	relative viability ([2]; first compound 0.6325 µM)	relative viability ([2]; first compound 2 µM)	relative viability ([2]; first compound 6.325 µM)	relative viability (AZD6482 + Foretinib; first compound 0.08 µM)	relative viability (AZD6482 + Foretinib; first compound 0.8 µM)	relative viability (AZD6482 + Foretinib; first compound 2.53 µM)	relative viability (AZD6482 + Foretinib; first compound 8 µM)	relative viability (AZD6482 + Phenformin; first compound 0.253 µM)	relative viability (AZD6482 + Foretinib; first compound 0.253 µM)
NCI-H2405	0.274	0.346	0.309	0.274	0.784	0.772	0.835	0.632	0.213	0.214	0.2	0.202	0.642	0.968	0.608	0.57	–	–
NCI-H3122	0.385	0.371	–	0.412	0.73	0.803	0.834	0.723	0.969	0.763	0.894	0.765	0.937	1.09	0.946	0.926	0.381	0.846
PC-3 [JPC-3]	0.418	0.508	0.406	0.391	1.06	0.97	1.09	0.986	0.954	0.908	1.08	1	0.928	1.09	0.877	0.875	0.492	1.09
PC-14	0.488	0.59	–	0.534	0.981	0.918	1.05	0.901	0.236	0.277	0.197	0.0162	0.906	0.945	0.83	0.953	0.438	0.9
RERF-LC-KJ	0.424	0.368	0.394	0.292	0.905	0.878	0.902	0.661	0.805	0.812	1.01	0.567	0.791	0.822	0.781	0.7	0.401	0.825
SK-LU-1	–	0.502	0.347	0.237	1.21	0.977	1.04	0.577	0.21	0.159	0.206	0.119	–	0.688	0.555	0.584	0.454	0.735
SK-MES-1	0.612	0.611	0.357	0.406	1.08	0.887	0.975	0.827	0.41	0.374	0.386	0.171	0.519	0.565	0.422	0.403	0.75	0.783
SW 1573	0.301	0.383	0.19	0.221	0.614	0.696	0.729	0.724	0.453	0.454	0.665	0.295	0.792	0.862	0.726	0.608	0.296	0.776
